# From PMC10363480 (Plant Communications, 2023)
# Values joined by “and” are separate entries in the source; they are usually repeats but may differ in a detail not shown here. Identical values can stand only once. “Also recorded” adds a separate entry of the source.
# What was measured:
# Format in all cases: cell-based
# [1] = system: Escherichia coli strain BW25113; assay: Minimum inhibitory concentration / antimicrobial activity growth assay; conditions: growth assay with dilutions of the AMP, Escherichia coli strain BW25113, Figure 3D
# [2] = system: mitochondria or chloroplast of Chlamydomonas reinhardtii; assay: Subcellular localization of Venus reporter by epifluorescence microscopy (manual targeting assignment); conditions: for mitochondrial targeting upon addition of mTP-C (P^m): C-terminal element of CAG2-mTP added to the named peptide, Figure 2 rows C and D; for mitochondrial targeting upon addition of mTP-C (P^m) / chloroplast targeting when combining cTP-N with cTP-C (^cP^c) / targeting when combining cTP-N with mTP-C (^cP^m): bare name = K and R versions
# Outline: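 Targeting peptide variants fused to Venus reporter, transformed into Chlamydomonas wild-type T222+ (CC-5101); three independent transformant lines per construct. Localization assigned manually from epifluorescence images using chlorophyll autofluorescence for chloroplast and 0.1 μM MitoTracker Red CMXRos (30 min) for mitochondria. Automated segmentation used for validation.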
# [3] = system: mitochondria or chloroplast of Chlamydomonas reinhardtii; assay: Automated image segmentation / quantification of Venus signal (pyrenoid/chlorophyll, mitochondria/cell); conditions: for automated image quantification values: unmodified HA-RAMPs, Supplemental Figures 2E, 2F, 5A, 9A
# Text: A custom ImageJ Macro was written to enable automated image segmentation of epifluorescence micrographs in Fiji. In brief, in a given micrograph, fluorescence intensities were normalized, and individual cells were detected using marker-controlled watershed from the MorphoLibJ library ([Legland et al., 2016]). For each cell, auto-thresholding the chlorophyll channel using the Huang method was used to generate a chlorophyll mask. Separately, the chlorophyll channel was subjected to a series of morphological filters and Gaussian blurring followed by auto-thresholding to finally detect round holes between 0.1 and 5 μm within the ensuing binary image to be saved as a pyrenoid mask. In MitoTracker images, the MitoTracker channel was subjected to morphological filtering followed by auto-thresholding with Otsu to generate a mitochondrial mask. Venus channel intensities were recorded for each compartment. For each cell, rotated images containing binary masks as extra channels were saved. Data were compiled, analyzed, and plotted in R v.3.6.1 (https://www.r-project.org/) using RStudio 2022.07.2+576 (https://www.rstudio.com/).
# Automated Image Analysis corroborates targeting
# To assess subcellular Venus localisation independently of our manual targeting assignment, 2202 3-channel images containing Venus, chlorophyll and brightfield channels, and 557 4-channel images containing an additional MitoTracker channel, were subjected to automated, quantitative […]
# image analysis (Fig. S2).
# In the absence of Venus, low chlorophyll autofluorescence is visible in the Venus channel; in the absence of a presequence, Venus accumulates in the cytoplasm, targeting neither to the mitochondria nor to the chloroplast. When equipped with the chimeric B15Kc presequence, Venus […]
# previously using confocal microscopy and biochemistry on isolated organelles (Garrido et al., When targeted to the chloroplast, Venus not only colocalizes with chlorophyll but also accumulates within the pyrenoid. The pyrenoid can be detected as a region of lower chlorophyll fluorescence at the base of the cup-shaped chloroplast, as visualized in Fig. S2B where the pyrenoid is labelled fluorescently using an RBCS-Venus fusion protein. Given that chlorophyll autofluorescence renders colocalization of Venus channel signal with the chlorophyll channel potentially misleading in constructs with low Venus accumulation, we chose to focus on evaluating Venus signal within the pyrenoid for automated image segmentation (Fig. S2C inset). Rather than comparing pyrenoidal Venus to the entire cell, we opted for a comparison with Venus in the rest of the chloroplast excluding the pyrenoid (the chlorophyll region), since strong Venus channel signal from within the pyrenoid should generate high values for a pyrenoid/chlorophyll ratio when Venus is in the chloroplast and low values when Venus is elsewhere. This approach was able to separate chloroplast-targeting constructs very effectively from constructs where Venus localized elsewhere in the cell (Fig. S2C). Only a small region of overlap between the two categories remains (highlighted in blue). Among constructs targeting elsewhere, constructs found in this overlap region typically show low Venus accumulation, e.g. the no-Venus control falls also falls in this region (black diamond). […]
# [4] = targeting of the Venus reporter fused to the peptide, expressed in Chlamydomonas reinhardtii, manual assignment from epifluorescence microscopy, full or partial
# [5] = manual targeting assignment of the Venus reporter construct in Chlamydomonas: Neither / Mitochondria / Chloroplast / Dual, (partial) = partial targeting
substance,measurement,setting,value
"GIGKFLHSAKKFGKAFVGEIMNS [MII, magainin 2, HA-RAMP antimicrobial peptide, reference compound]","minimum inhibitory concentration after replacing all Ks with Rs, compared with the natively K-rich sequence",[1],increased
same,mitochondrial targeting upon addition of mTP-C (P^m),[2],continued targeting
same,mitochondrial localization upon addition of cTP-C (P^c),"[2]; C-terminal element of RCA1-cTP added, Figure 2 rows E and F",compatible with mitochondrial localization
same,organelle targeting (Venus reporter localization) by the construct as labelled,"[2]; peptide inserted upstream of Venus, stable Chlamydomonas lines, epifluorescence, MitoTracker / chlorophyll / pyrenoid co-localization, three independent insertion lines",only partial
"ranatuerin-2G [R2GK, reference compound]",mitochondrial targeting upon addition of mTP-C (P^m),[2],enabled partial mitochondrial targeting
same,chloroplast targeting when combining cTP-N with cTP-C (^cP^c),[2]; Figure 2,fail to target the chloroplast
same,automated image quantification values,[3],high image quantification values
"ALWMTLLKKVLKAAAKAALNAVLVGANA [DS4, dermaseptin S4, HA-RAMP antimicrobial peptide]","minimum inhibitory concentration after replacing all Ks with Rs, compared with the natively K-rich sequence",[1],increased
same,chloroplast targeting when combining cTP-N with cTP-C (^cP^c),[2]; Figure 2,failed to show any chloroplast targeting; also recorded: fail to target the chloroplast
same,Targeting,"[2]; manual assignment printed per cell line of Table S3, Fig.S 7 panel a, Nter sans, Cation K, Cter sans, pODC 82, colony 16, strain 2",none
same,Venus.ratio_pyr,"[3]; Venus channel signal in the pyrenoid relative to the chlorophyll region, single-cell values, image 1, 3 channels, Cation K, no TP elements, strain 2",0.9978 and 0.9365
same,Venus.ratio_pyr.norm,"[3]; normalized so that construct averages range from 0 to 1, single-cell values, image 1, 3 channels, Cation K, no TP elements, strain 2",0.09363
same,Venus.ratio_cp,"[3]; single-cell values (Cell 0, 1, 10, 11, 12), image 1, 3 channels, Nter sans, Cation K, Cter sans, strain 2",1.038 and 1.1 and 1.124 and 1.055 and 1.047
"FLPLLAGLAANFLPKIFCKITRKC [B1E, brevinin-1E, HA-RAMP antimicrobial peptide, reference compound]","minimum inhibitory concentration after replacing all Ks with Rs, compared with the natively K-rich sequence",[1],increased
same,mitochondrial targeting upon sole addition of cTP-N (^cP),"[2]; 15 N-terminal residues of RCA1-cTP added, no C-terminal element, Figure 2",enabled mitochondrial targeting
same,targeting when combining cTP-N with mTP-C (^cP^m),[2]; Figure 2,dual targeting
"cecropin-P3 [CP3K, reference compound]",chloroplast targeting when combining cTP-N with cTP-C (^cP^c),[2]; Figure 2,fail to target the chloroplast
same,targeting when combining cTP-N with mTP-C (^cP^m),[2]; Figure 2,chloroplast targeting
same,automated image quantification values,[3],high image quantification values
MQVTMKSSAVSGQRVMALWKTMLKKLGTMALHAGKAAFGAAADTISQLTQTAESFRGVSSQFFDAPNGPSVKQVLIEDEW [c.DDM.K.m],Localisation,[2]; [4],Neither
MNIVVYWNFTLWHMDINARNAGCDGEGS [RP1.K],Localisation,[2]; [4],Neither
MGGAKVATKSVKKAQLQVVASSKKQMGKWKSIDAGVDASDDQ [CH.K.c],Localisation,[2]; [5],Neither
MALWKTMLKKLGTMALHAGKAAFGAAADTISQ [DDM.K],Localisation,[2]; [4],Neither
MSFLTTFRDLAIRAARSAGQSVLSTLSCRLSNTCSVRRAQLQVVASSRKQMGRWRSIDAGVDASDDQ [B2I.R.c],Localisation,[2]; [5],Mitochondria
MSFLTTFKDLAIKAAKSAGQSVLSTLSCKLSNTCSVRRAQLQVVASSRKQMGRWRSIDAGVDASDDQ [B2I.K.c],Localisation,[2]; [4],Mitochondria
